Reference: PMC9124820, “In vitro evaluation of fenfluramine and norfenfluramine as victims of drug interactions” (Pharmacology Research & Perspectives, 2022)

Columns and labels:
BCRP = biological target: T1, BCRP (Homo sapiens, UniProt Q9UNQ0); experiment: Transporter substrate determination, bi-directional permeability in MDCKII-BCRP cells; type: in vitro ADME; design: host or cells: MDCKII; settings: for substrate of the transporter: BCRP; for Maximum Ratio (net flux in transporter‐expressing cells to control cells): MDCKII‐BCRP, 0.1, 1, 10 µM, threshold ≥2‐fold suggests substrate
T1 sequence (Q9UNQ0 1-655): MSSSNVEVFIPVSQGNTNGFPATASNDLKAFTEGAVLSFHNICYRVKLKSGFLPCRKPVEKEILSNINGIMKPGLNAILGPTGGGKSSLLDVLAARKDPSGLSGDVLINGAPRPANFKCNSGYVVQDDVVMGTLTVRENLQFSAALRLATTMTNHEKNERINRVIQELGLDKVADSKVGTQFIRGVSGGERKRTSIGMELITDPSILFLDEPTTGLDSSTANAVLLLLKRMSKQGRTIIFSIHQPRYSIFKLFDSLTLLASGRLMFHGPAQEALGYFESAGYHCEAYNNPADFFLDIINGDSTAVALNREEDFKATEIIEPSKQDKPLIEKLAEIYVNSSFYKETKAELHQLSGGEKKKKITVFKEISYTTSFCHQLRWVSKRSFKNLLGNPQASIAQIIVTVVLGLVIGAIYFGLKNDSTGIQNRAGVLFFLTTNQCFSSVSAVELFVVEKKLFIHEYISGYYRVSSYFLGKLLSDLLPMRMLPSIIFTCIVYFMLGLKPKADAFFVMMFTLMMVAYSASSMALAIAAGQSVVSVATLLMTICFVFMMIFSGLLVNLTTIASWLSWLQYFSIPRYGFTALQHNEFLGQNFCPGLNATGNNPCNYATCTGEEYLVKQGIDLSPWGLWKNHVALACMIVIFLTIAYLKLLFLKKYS
Protocol: LC‐MS/MS analyses to assess metabolic stability and identify the transporter substrate were performed using an API 4000 QTRAP mass spectrometer (SCIEX, Framingham, MA) with electrospray ionization in positive mode. Chromatography was performed using an Atlantis dC18 analytical column (100 × 2.1 mm, 5 µm; Waters Corporation, Milford, MA). Mobile phases were 0.2% v/v formic acid in water and 0.2% v/v formic acid in acetonitrile. For metabolic stability experiments, FFA and metabolites were eluted at a flow rate of 0.6 mL/min, with a linear gradient of 20%−80% acetonitrile from 0.30−2.0 min. For transporter substrate experiments, the gradient was slightly modified to achieve suitable chromatography. The mass transitions monitored were 232.0 > 159.0 for FFA and 348.0 > 330.0 for 1ʹ‐OH‐midazolam‐d4 internal standard.
FFA and nFFA were evaluated as substrates of the transporters breast cancer resistance protein (BCRP), organic anion transporter (OAT)1, OAT3, organic cation transporter (OCT)2, MATE1, MATE2‐K, and P‐glycoprotein multidrug transporter (P‐gp; also known as MDR1 and ABCB1), according to published methods.[25], [26], [27], [28], [29] Madin‐Darby canine kidney (MDCKII)‐BCRP cells (Netherlands Cancer Institute, Amsterdam, Netherlands) or human embryonic kidney (HEK)293 cells transfected with other transporters (Sekisui Medical Co., Ltd., Tokyo, Japan) were used. Transporter‐transfected and control cells were incubated with FFA or nFFA (0.1, 1, or 10 μM), and the amount of FFA and nFFA accumulated in the cells was measured by LC‐MS/MS as described above. The accumulation of positive control substrates in the presence and absence of an inhibitor served as a positive control for transporter function. […] BCRP substrate determination was made by bi‐directional permeability across MDCKII‐BCRP and control cells cultured on 24‐well transwell plates. Incubation medium containing probe substrate was added. Ten minutes later, transepithelial electrical resistance (TEER) was recorded and cells were preincubated at 37 ± 2°C for 30−60 min before FFA or nFFA or positive control substrate with the solvent control or positive control inhibitor was added to the donor (apical) chamber. […] Samples containing FFA, nFFA, or probe substrate were mixed with internal standard and analyzed by LC‐MS/MS. […] An aliquot was added to 96‐well plate containing scintillation fluid that was analyzed by a MicroBeta^2 scintillation counter (Perkin Elmer, Waltham, MA). Protein concentration was determined by a bicinchoninic acid (BCA) protein assay according to the manufacturer’s protocol (Thermo Fisher Scientific, Waltham, MA). Non‐radiolabeled compounds were resuspended in a 50:50 v/v methanol:water solution containing internal standard and were analyzed by LC‐MS/MS. […]

[1] = Substrate loss and nFFA formation over time in human liver microsomes; type: in vitro ADME
Text: Microsomes from a mixed‐gender pool of 200 non‐transplantable human livers (Sekisui XenoTech, LLC, Kansas City, KS) were characterized as described.[20], [21] Human recombinant CYP450s (rCYP450s) and control membranes from Escherichia coli transfected with empty expression plasmid or plasmid expressing nicotinamide adenine dinucleotide phosphate (hydrogen) (NADPH)‐CYP450 oxidoreductase without CYP450 enzymes were obtained from Cypex, Ltd. Metabolite identification and stability studies used human liver S9 fractions (containing both microsomal and cytosolic fractions of the cell) from pooled human liver (n = 50) and intestine (n = 10), pooled canine liver (n = 8) and intestine (n = 7), and pooled rat liver (n = 454) and intestine (n = 199). All rCYP450 enzymes except rCYP1A2 and rCYP2D6 were expressed with cytochrome b5.
For FFA and nFFA reaction phenotyping experiments, LC‐MS/MS experiments were performed using an API 4000 QTRAP or QTRAP 5500 mass spectrometer (SCIEX) with positive electrospray ionization. Chromatography was performed using an Atlantis dC18 analytical column (100 × 2.1 mm, 5 µm; Waters Corporation). Mobile phases were 0.2% v/v formic acid in water and 0.2% v/v formic acid in methanol. FFA and nFFA were eluted at a flow rate of 0.5 mL/min with a linear gradient of 40%−95% methanol from 0.20−2.1 min. The mass transitions monitored were 232.0>109.0 for FFA, 204.0>159.0 for nFFA, 348.0>330.0 for 1’‐hydroxymidazolam‐d4 internal standard (FFA reaction phenotyping), and 262.0>244.0 for hydroxybupropion‐d6 internal standard (nFFA reaction phenotyping). Analyst Instrument Control and Data Processing software (v. 1.6.1) was used for collecting and integrating data (SCIEX). Calibration curves ranging from 1.25 µM−0.01 µM were used to quantify nFFA. Relative quantitation was used to approximate the amount of FFA test material used.
The line of best‐fit for calibration standards was calculated by weighted (1/x) linear regression based on peak‐area ratios of analyte to the internal standard using Analyst Instrument Control and Data Processing software (version 1.6.1; SCIEX). Mean analyte peak‐area ratio at each time point was normalized to controls at t = 0 min (100%).

SMILES | substrate of the transporter (BCRP) | Maximum Ratio (net flux in transporter‐expressing cells to control cells) (BCRP) | FFA substrate loss ([1]; human liver microsomes 1 mg protein/mL, 1−100 µM FFA, all concentrations and times tested) | substrate remaining in the absence of NADPH ([1]; human liver microsomes, FFA, absence of NADPH) | nFFA substrate loss in the absence of microsomal protein ([1]; control without microsomal protein) | nFFA substrate loss in the absence of the NADPH‐generating system ([1]; human liver microsomes, no NADPH-generating system)
CCNC(C)Cc1cccc(C(F)(F)F)c1 (racemic) [FFA, (RS)‐ethyl (α‐methyl‐3‐trifluoromethylphenethyl)amine] | not substrates | 1.51 | ≤ 7.7% | ~ 100% |  | 
CC(N)Cc1cccc(C(F)(F)F)c1.Cl (centres unmarked) [nFFA, 1‐(3‐(trifluoromethyl)phenyl)propan‐2‐amine hydrochloride] | not substrates | 1.42 |  |  | no substrate loss detected | 1.2%
